Experimental data: patent US10709677B2, “Therapeutic uses of benzylideneguanidine derivatives for the treatment of proteopathies” (InFlectis BioScience, priority 2014, dated 2020)

How the values were obtained:
HeLa cells [1] = assay: Cytoprotection from ER stress (tunicamycin, WST-8 cell viability); assay type: cell-based; conditions: 6 hour exposure of tunicamycin 5 μg/mL, inhibitors 0.5-10 μM, viability 48 h or 72 h after
Source text: Cytoprotection against ER stress can be measured by a suitable assay. For example, cytoprotection can be measured in HeLa cells in which ER stress is elicited by the addition of media containing tunicamycin, a mixture of homologous nucleoside antibiotics that inhibits the UDP-HexNAc: polyprenol-P HexNAc-1-P family of enzymes and is used to induce unfolded protein response. Cell viability can be detected in the presence and absence of inhibitor compounds after a set period of time, by measuring the reduction of WST-8 into formazan using a standard cell viability kit (such as Cell Viability Counting Kit-8 from Dojindo). The person skilled in the art may use other class of tetrazolium compounds such as MTT, MTS, XTT. Cytoprotection from ER stress is measured in terms of the percentage increase in viable cells (relative to control) after ER stress. Alternative cell viability assays may be used such as luminogenic ATP assay. Further details of a suitable assay are set forth in the accompanying Examples section.
HeLa Cells were cultured in Eagle's Minimum Essential Medium (EMEM) supplemented with Glutamine, Sodium Pyruvate, Non-Essential Amino Acids, Penicillin and Streptomycin containing 10% Fœtal Bovine Serum (FBS), at 37° C. in 5% CO2 atmosphere. Cells were plated in 96 well plates at a density of 17,000 cells/mL the day before the treatment. ER stress was elicited by addition of 5 μg/mL tunicamycin (Sigma-Aldrich) together with the phosphatases inhibitors (0.5-10 μM). Media were changed 6 h later with fresh media and the cytoprotection was maintained by the addition of the phosphatases inhibitors (0.5-10 μM). Cell viability was assessed by measuring the reduction of WST-8 into formazan using Cell Counting Kit-8 (Sigma) according to the supplier's recommendation, 48 h or 72 h after tunicamycin treatment.

human alpha2A receptor = molecular target: T1, human alpha2A receptor (Homo sapiens, UniProt P08913); assay: Functional GPCR assay for adrenergic α2A receptor (CellKey detection method); assay type: cell-based; conditions: agonist activity, CHO cells, impedance; EC50>33.3 μM considered no significant alpha-2 adrenergic activity; read-out: Functional adrenergic alpha2 receptor assay EC50
T1 construct: CHO cells endogenously expressing human alpha2A receptor; endogenous in cells; host or cells: CHO cells
T1 sequence (P08913 1-465): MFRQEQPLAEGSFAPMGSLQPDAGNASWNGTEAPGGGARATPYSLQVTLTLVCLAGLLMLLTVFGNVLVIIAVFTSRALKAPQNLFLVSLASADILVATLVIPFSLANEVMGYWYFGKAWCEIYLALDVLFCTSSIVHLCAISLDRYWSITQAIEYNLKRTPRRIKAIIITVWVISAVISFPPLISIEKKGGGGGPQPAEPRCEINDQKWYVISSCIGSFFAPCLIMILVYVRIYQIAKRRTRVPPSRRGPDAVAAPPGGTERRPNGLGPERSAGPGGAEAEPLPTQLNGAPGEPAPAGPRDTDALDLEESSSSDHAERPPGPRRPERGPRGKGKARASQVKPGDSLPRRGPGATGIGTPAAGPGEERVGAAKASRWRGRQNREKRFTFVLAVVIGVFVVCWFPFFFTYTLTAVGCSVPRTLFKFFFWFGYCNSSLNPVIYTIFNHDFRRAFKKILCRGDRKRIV

HeLa cells [2] = assay: Assessment of translation rates in unstressed cells; assay type: cell-based; conditions: compounds 50 μM for 2.5, 5 and 9 h
Method: Culture medium was replaced by methionine-free DMEM medium (Invitrogen) 30 min before compounds addition. One hour before each time point, 50 μM of Click-iT® AHA (L-azidohomoalanine) (Invitrogen) was added to the culture medium in order to label newly synthesized proteins. At the end of each time point, cells were washed with ice-cold PBS and harvested by Trypsine dissociation (Lonza), then lysed in a 50 mM Tris-HCl buffer containing 1% of SDS (Sigma) and protease and phosphatase inhibitors (Sigma). Protein samples were coupled to alkyne biotin (Invitrogen) using Click-iT® Protein Reaction Buffer Kit (Invitrogen). Samples were denatured at 70° C. for 10 min, resolved on ECL 4-20% precasted gels (GE Healthcare) and transferred to nitrocellulose membranes (GE Healthcare). Alkyne biotin coupled to Click-iT® AHA incorporated to newly synthesized proteins was detected using streptavidin-HRP (Gentex). Revelation was performed by incubation of ECL Prime (GE Healthcare) and read by chemoluminiscence using Fusion Solo 3S (Vilber Lourmat).

[3] = test system: mouse embryonic fibroblasts lipofected with poly I:C; assay: In vitro inflammation/infection model: poly I:C induced mouse embryonic fibroblasts; assay type: cell-based; conditions: 25 μM, 6 h, IFN-beta ELISA
Method: After 6 h of culture, eIF2alpha-phosphorylation (eIF2α-P) and PPP1R15A (GADD34) expression was monitored by western blotting, while type-I Interferon (IFN)-beta production was quantified in culture supernatants by ELISA. Control (nt) and poly I:C/DMSO are respectively negative and positive controls.
MEFs were cultured in DMEM, 10% FCS (HyClone, Perbio), 100 units/ml penicillin, 100 μg/ml streptomycin, 2 mM glutamine, 1×MEM non-essential amino acids and 50 μM 2-mercaptoethanol. MEFS were treated for the indicated time with 10 μg/ml poly I:C (InvivoGen) in combination with lipofectamine 2000 (Invitrogen).
Cells were lysed in 1% Triton X-100, 50 mM Hepes, 10 mM NaCl, 2.5 mM MgCl2, 2 mM EDTA, 10% glycerol, supplemented with Complete Mini Protease Inhibitor Cocktail Tablets (Roche). Protein quantification was performed using the BCA Protein Assay (Pierce). […] Rabbit polyclonal antibodies recognizing GADD34 (C-19) were from Santa Cruz Biotechnology and anti-eIF2alpha[pS^52] were from Invitrogen.
IFN-beta quantification in culture supernatant was performed using the Mouse Interferon Beta ELISA kit (PBL Interferon Source) according to manufacturer instructions.

Min6 insulinoma cell = assay: Cytoprotection from ER stress (tunicamycin) in Min6 cell line; assay type: cell-based; conditions: 6 hour exposure to tunicamycin, different concentrations
Method: (§1) Cells were plated in 96 well plates at a density of 0.5·10^6 cells/mL for Min6 cell line, 0.4·10^6 cells/mL for INS1 cell line the day before the treatment.
(§2) ER stress was elicited by addition of 2.5 μg/mL tunicamycin (Sigma Aldrich) together with phosphatases inhibitors.
(§3) Media were changed 6 h later with fresh media and the cytoprotection was maintained by the addition of phosphatases inhibitors.
(§4) Cell viability was assessed by measuring the reduction of WST-8 into formazan using Cell Counting Kit-8 (Sigma) according to the supplier's recommendation, 72 h after tunicamycin treatment.

Min6 cells = assay: Protection against accumulation of misfold prone Insulin Akita in Min6 cells; assay type: cell-based; conditions: viability 9 days after treatment
Method: Min6 cells were nucleofected with Insulin^Akita a mutant constructs and seeded in 96 well-plates at 300,000 cells/mL and 24 h later, cells were treated with molecules or left untreated. As a control, cells were nucleofected with non-relevant plasmid. 6 days later, a selective agent was added (G418).
Cell viability was assessed by measuring the reduction of WST-8 into formazan using Cell Counting Kit-8 (Sigma) according to the supplier's recommendation, 9 days after treatment.

INS1 insulinoma cell = assay: Cytoprotection from ER stress (tunicamycin) in INS1 cell line; assay type: cell-based; conditions: 6 hour exposure to tunicamycin, different concentrations
Method: as §1, §2, §3, §4

HeLa cells [4] = conditions: tunicamycin, Tsaytler et al., Science 2011, cited from earlier work; for protection of cells from cytotoxic ER stress: HeLa cells

| Compound | Cytoprotection from ER stress compared to guanabenz (HeLa cells [1]) | Translation inhibition in non-stressed cells (HeLa cells [2]) | also measured |
| --- | --- | --- | --- |
| CC(=O)O.N=C(N)N/N=C/c1ccncc1Cl [Compound 7, 2-[(3-chloropyridin-4-yl)methylidene]hydrazinecarboximidamide acetate] | ++ | no effect | EC50 (human alpha2A receptor): > 33300 nM |
| N=C(N)N/N=C/c1ccncc1Cl [Compound 6, 2-[(3-chloropyridin-4-yl)methylidene]hydrazinecarboximidamide] | + | no effect | type-I IFN production (FIG. 13) [3]: prevent type-I IFN production; Min6 insulinoma cell death induced by tunicamycin (FIG. 9) (Min6 insulinoma cell): prevent Min6 insulinoma cell death; cell death associated with accumulation of misfold prone Insulin Akita (FIG. 8) (Min6 cells): prevent cell death; INS1 insulinoma cell death induced by tunicamycin (FIG. 10) (INS1 insulinoma cell): prevent INS1 insulinoma cell death |
| CCC1(C2=NCCN2)Cc2ccccc2O1 (stereo not shown) [efaroxan] |  |  | protection of cells from cytotoxic ER stress (HeLa cells [4]): Neither the α2-adrenergic receptor agonist clonidine, nor the α2-adrenergic receptor antagonist efaroxan protected cells |
| NC(N)=N/N=C/c1c(Cl)cccc1Cl [guanabenz, 2-(2,6-dichlorobenzylidene)hydrazinecarboximidamide] |  |  | protection of cells from cytotoxic ER stress (HeLa cells [4]): doubled the number of cells surviving ER stress; EC50 (HeLa cells [4]; read-out: median effective concentration, survival of HeLa cells exposed to ER stress): ~400 nM |
| CC(=O)O.N=C(N)N/N=C/c1c(F)cccc1Cl [Compound 8, 2-(2-chloro-6-fluorobenzylidene)hydrazinecarboximidamide acetate] | ++ | no effect | type-I IFN production (FIG. 13) [3]: prevent type-I IFN production |
| Cc1cccc(/C=N/NC(=N)N)c1Cl [Compound 11, 2-(2-chloro-3-methylbenzylidene)hydrazinecarboximidamide] | + |  |  |
| Cc1ccc(/C=N/NC(=N)N)c(Cl)c1 [Compound 9, 2-(2-chloro-4-methylbenzylidene)hydrazinecarboximidamide] | − |  |  |
| N=C(N)N/N=C/c1ccccc1Br [Compound 3, 2-(2-bromobenzylidene) hydrazinecarboximidamide] | ++ | no effect |  |
| COc1ccccc1/C=N/NC(=N)N [Compound 4, 2-(2-methoxybenzylidene) hydrazinecarboximidamide] | + |  |  |
| Cc1ccc(Cl)c(/C=N/NC(=N)N)c1 [Compound 10, 2-(2-chloro-5-methylbenzylidene)hydrazinecarboximidamide] | + |  |  |
| Clc1cccc(Cl)c1N=C1NCCN1 [clonidine] |  |  | protection of cells from cytotoxic ER stress (HeLa cells [4]): Neither the α2-adrenergic receptor agonist clonidine, nor the α2-adrenergic receptor antagonist efaroxan protected cells |
